Molecules are shown by their SMILES. Structures can show the parent of a compound that is named as a salt. A value given as a limit tells only on which side of the number the result lay.

SHP2, sequence (Q06124 whole entry): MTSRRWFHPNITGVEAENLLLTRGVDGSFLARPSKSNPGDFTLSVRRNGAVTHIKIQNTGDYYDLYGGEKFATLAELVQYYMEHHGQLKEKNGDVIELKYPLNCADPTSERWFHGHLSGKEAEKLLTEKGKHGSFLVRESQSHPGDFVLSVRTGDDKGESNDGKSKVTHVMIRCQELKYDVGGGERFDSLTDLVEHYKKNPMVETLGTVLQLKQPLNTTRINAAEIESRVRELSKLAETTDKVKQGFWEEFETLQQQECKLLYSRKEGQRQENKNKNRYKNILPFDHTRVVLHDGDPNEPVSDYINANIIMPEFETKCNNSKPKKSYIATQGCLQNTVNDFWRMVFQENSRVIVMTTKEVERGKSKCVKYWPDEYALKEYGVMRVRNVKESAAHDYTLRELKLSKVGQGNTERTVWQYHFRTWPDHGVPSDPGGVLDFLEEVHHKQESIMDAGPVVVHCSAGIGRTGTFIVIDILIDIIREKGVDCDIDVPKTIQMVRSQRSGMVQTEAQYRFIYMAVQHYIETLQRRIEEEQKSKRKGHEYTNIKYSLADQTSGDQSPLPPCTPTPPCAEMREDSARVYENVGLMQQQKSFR

This assay concerns the target SHP2 (Homo sapiens (Human), UniProt Q06124). The assay is described as follows: SHP2 Allosteric Inhibition Assay (DiFMUP prompt fluorescence). Type of assay: biochemical. The note with it: 0.25 nM SHP2 activated with 0.5 μM peptide IRS1_pY1172(dPEG8)pY1222; substrate DiFMUP 100 μM; 25° C.
Regarding `N[C@@H]1CCCC12CCN(c1cnc3c(N4CCCc5ncccc54)n[nH]c3n1)CC2` [Compound 212], the IC50 was less than 1000 nM.
The value for `N[C@H]1COCC12CCN(c1cnc3c(N4CCCc5ncccc54)n[nH]c3n1)CC2` [Compound 213] was less than 1000 nM; that for `N[C@@H]1COCC12CCN(c1cnc3c(N4CCCc5ncccc54)n[nH]c3n1)CC2` [Compound 214] was less than 1000 nM; that for `O=C1NC2(CCN(c3cnc4c(N5CCCc6ncccc65)n[nH]c4n3)CC2)CO1` [Compound 215] was 1000 to 10000 nM.
The value for `NC1=NC2(CCN(c3cnc4c(N5CCCc6ncccc65)n[nH]c4n3)CC2)CO1` [Compound 216, 8-(3-(3,4-dihydro-1,5-naphthyridin-1(2H)-yl)-1H-pyrazolo[3,4-b]pyrazin-6-yl)-3-oxa-1,8-diazaspiro[4.5]dec-1-en-2-amine hydrochloride] was less than 1000 nM.
As to `C[C@@H]1OCC2(CCN(c3cnc4c(N5CCCc6cc(C#N)ccc65)n[nH]c4n3)CC2)[C@@H]1N` [Compound 217], the IC50 is less than 1000 nM.
In turn, `CC1CCN(c2n[nH]c3nc(N4CCC5(CC4)CO[C@@H](C)[C@H]5N)cnc23)c2ccc(C#N)cc21` (some centres unmarked) [Compound 218] returned an IC50 of less than 1000 nM.
Consider `C[C@@H]1CCN(c2n[nH]c3nc(N4CCC5(CC4)CO[C@@H](C)[C@H]5N)cnc23)c2ccc(C#N)cc21` [Compound 219], for which the 50% inhibitory concentration (IC50) is less than 1000 nM.
The value for `C[C@@H]1OCC2(CCN(c3cnc4c(N5CC[C@H](C)c6cc(C#N)ccc65)n[nH]c4n3)CC2)[C@@H]1N` [Compound 220] was less than 1000 nM; that for `C[C@@H]1OCC2(CCN(c3cnc4c(N5CCc6c(-c7nccs7)cccc65)n[nH]c4n3)CC2)[C@@H]1N` [Compound 221] was less than 1000 nM; that for `CC1CCN(c2n[nH]c3nc(N4CCC5(CC4)CNC(=O)C5)cnc23)c2cccnc21` (centres unmarked) [Compound 222, 8-[3-(4-methyl-1,2,3,4-tetrahydro-1,5-naphthyridin-1-yl)-1H-pyrazolo[3,4-b]pyrazin-6-yl]-2,8-diazaspiro[4.5]decan-3-one] was 1000 to 10000 nM.
The value for `CC1CCN(c2n[nH]c3nc(N4CCC5(CC4)CO[C@@H](C)[C@H]5N)cnc23)c2cc(F)c(C#N)cc21` (some centres unmarked) [Compound 223] was less than 1000 nM.
The value for `C[C@@H]1OCC2(CCN(c3cnc4c(N5CCCc6nc(-c7cnn(C)c7)ccc65)n[nH]c4n3)CC2)[C@@H]1N` [Compound 224, (3S,4S)-3-methyl-8-(3-(6-(1-methyl-1H-pyrazol-4-yl)-3,4-dihydro-1,5-naphthyridin-1(2H)-yl)-1H-pyrazolo[3,4-b]pyrazin-6-yl)-2-oxa-8-azaspiro[4.5]decan-4-amine] was less than 1000 nM.
On to `C[C@@H]1OCC2(CCN(c3cnc4c(N5CCCc6c5ccnc6N5CCOC5=O)n[nH]c4n3)CC2)[C@@H]1N` [Compound 225], for which the IC50 is less than 1000 nM.
On to `C[C@@H]1OCC2(CCN(c3cnc4c(N5CCCc6c5ccnc6-c5cnn(C)c5)n[nH]c4n3)CC2)[C@@H]1N` [Compound 226], for which the IC50 is less than 1000 nM.
For `C[C@@H]1OCC2(CCN(c3cnc4c(N5CC[C@H](C)c6cc(-c7ncon7)ccc65)n[nH]c4n3)CC2)[C@@H]1N` [Compound 227, (3S,4S)-3-methyl-8-(3-((S)-4-methyl-6-(1,2,4-oxadiazol-3-yl)-3,4-dihydroquinolin-1(2H)-yl)-1H-pyrazolo[3,4-b]pyrazin-6-yl)-2-oxa-8-azaspiro[4.5]decan-4-amine] the value was less than 1000 nM; for `C[C@@H]1OCC2(CCN(c3cnc4c(N5CCCc6c5ccnc6C#N)n[nH]c4n3)CC2)[C@@H]1N` [Compound 228], less than 1000 nM; for `C[C@@H]1OCC2(CCN(c3cnc4c(N5CCC(=C(F)F)c6ccccc65)n[nH]c4n3)CC2)[C@@H]1N` [Compound 231], less than 1000 nM.
For `C[C@@H]1OCC2(CCN(c3cnc4c(N5CCCc6c5ccnc6C5CC5)n[nH]c4n3)CC2)[C@@H]1N` [Compound 232] the value was less than 1000 nM.
The value for `Cc1nccc2c1CCCN2c1n[nH]c2nc(N3CCC4(CC3)CO[C@@H](C)[C@H]4N)cnc12` [Compound 233] was less than 1000 nM; that for `C[C@@H]1OCC2(CCN(c3cnc4c(N5CCNc6ccccc65)n[nH]c4n3)CC2)[C@@H]1N` [Compound 234] was less than 1000 nM.
For `CC(=O)N1CCN(c2n[nH]c3nc(N4CCC5(CC4)CO[C@@H](C)[C@H]5N)cnc23)c2ccccc21` [Compound 235], the IC50 was less than 1000 nM.
As to `C[C@@H]1OCC2(CCN(c3cnc4c(N5CCCc6c5ccnc6C(F)F)n[nH]c4n3)CC2)[C@@H]1N` [Compound 236], the IC50 was less than 1000 nM.
The value for `C[C@@H]1OCC2(CCN(c3cnc4c(N5CCCc6nc(C7=CCOCC7)ccc65)n[nH]c4n3)CC2)[C@@H]1N` [Compound 237] was less than 1000 nM; that for `C[C@@H]1OCC2(CCN(c3cnc4c(N5CC(=O)N(C)c6ccccc65)n[nH]c4n3)CC2)[C@@H]1N` [Compound 238] was less than 1000 nM.
The value for `C[C@@H]1OCC2(CCN(c3cnc4c(N5CCCc6nc(C7CCOCC7)ccc65)n[nH]c4n3)CC2)[C@@H]1N` [Compound 239] was less than 1000 nM; that for `C[C@@H]1OCC2(CCN(c3cnc4c(N5CCCc6c5ccn(C)c6=O)n[nH]c4n3)CC2)[C@@H]1N` [Compound 240] was less than 1000 nM; that for `C[C@@H]1OCC2(CCN(c3cnc4c(N5CC(=O)Nc6cnccc65)n[nH]c4n3)CC2)[C@@H]1N` [Compound 241] was less than 1000 nM.
`C[C@@H]1OCC2(CCN(c3cnc4c(N5CCCc6nc(C(N)=O)ccc65)n[nH]c4n3)CC2)[C@@H]1N` [Compound 243, 5-(6-((3S,4S)-4-amino-3-methyl-2-oxa-8-azaspiro[4.5]decan-8-yl)-1H-pyrazolo[3,4-b]pyrazin-3-yl)-5,6,7,8-tetrahydro-1,5-naphthyridine-2-carboxamide] registered an IC50 of less than 1000 nM.
The value for `C[C@@H]1OCC2(CCN(c3cnc4c(N5CCCc6c(C(=O)O)cccc65)n[nH]c4n3)CC2)[C@@H]1N` [Compound 244, 1-(6-((3S,4S)-4-amino-3-methyl-2-oxa-8-azaspiro[4.5]decan-8-yl)-1H-pyrazolo[3,4-b]pyrazin-3-yl)-1,2,3,4-tetrahydroquinoline-5-carboxylic Acid] was less than 1000 nM; that for `C[C@@H]1OCC2(CCN(c3cnc4c(N5CCCc6nc(-c7ncon7)ccc65)n[nH]c4n3)CC2)[C@@H]1N` [Compound 246, (3S,4S)-8-(3-(6-(1,2,4-oxadiazol-3-yl)-3,4-dihydro-1,5-naphthyridin-1(2H)-yl)-1H-pyrazolo[3,4-b]pyrazin-6-yl)-3-methyl-2-oxa-8-azaspiro[4.5]decan-4-amine] was less than 1000 nM.
For `C[C@@H]1OCC2(CCN(c3cnc4c(N5CCNc6ncccc65)n[nH]c4n3)CC2)[C@@H]1N` [Compound 247] the value was less than 1000 nM; for `C[C@@H]1OCC2(CCN(c3cnc4c(N5CCCc6nc(C#N)ccc65)n[nH]c4n3)CC2)[C@@H]1N` [Compound 248], less than 1000 nM.
The value for `C[C@@H]1OCC2(CCN(c3cnc4c(N5CCC(C(F)F)c6ccccc65)n[nH]c4n3)CC2)[C@@H]1N` (some centres unmarked) [Compound 250] was less than 1000 nM; that for `C[C@@H]1OCC2(CCN(c3cnc4c(N5CCCc6c(C7CCOCC7)cccc65)n[nH]c4n3)CC2)[C@@H]1N` [Compound 251] was less than 1000 nM; that for `C[C@@H]1OCC2(CCN(c3cnc4c(N5CCCc6nc(-n7cccn7)ccc65)n[nH]c4n3)CC2)[C@@H]1N` [Compound 252] was less than 1000 nM.
On to `COC(=O)n1nc(N2CCCc3ncccc32)c2ncc(N3CCC4(CC3)CO[C@@H](C)[C@H]4N)nc21` [Compound 253, methyl 6-[(3S,4S)-4-amino-3-methyl-2-oxa-8-azaspiro[4.5]decan-8-yl]-3-(1,2,3,4-tetrahydro-1,5-naphthyridin-1-yl)-1H-pyrazolo[3,4-b]pyrazine-1-carboxylate hydrochloride], for which the IC50 is less than 1000 nM.
The value for `C[C@@H]1OCC2(CCN(c3cnc4c(N5CCCc6nc(-c7cc[nH]n7)ccc65)n[nH]c4n3)CC2)[C@@H]1N` [Compound 254, (3S,4S)-8-(3-(6-(1H-pyrazol-3-yl)-3,4-dihydro-1,5-naphthyridin-1(2H)-yl)-1H-pyrazolo[3,4-b]pyrazin-6-yl)-3-methyl-2-oxa-8-azaspiro[4.5]decan-4-amine] was less than 1000 nM; that for `C[C@@H]1OCC2(CCN(c3cnc4c(N5CCCc6nc(-c7ccnn7C)ccc65)n[nH]c4n3)CC2)[C@@H]1N` [Compound 255, (3S,4S)-3-methyl-8-{3-[6-(1-methyl-1H-pyrazol-5-yl)-1,2,3,4-tetrahydro-1,5-naphthyridin-1-yl]-1H-pyrazolo[3,4-b]pyrazin-6-yl}-2-oxa-8-azaspiro[4.5]decan-4-amine hydrochloride] was less than 1000 nM.
The molecule `C[C@@H]1OCC2(CCN(c3cnc4c(N5CCCc6nc(N7CCNCC7)ccc65)n[nH]c4n3)CC2)[C@@H]1N` [Compound 256, (3S,4S)-3-methyl-8-{3-[6-(piperazin-1-yl)-1,2,3,4-tetrahydro-1,5-naphthyridin-1-yl]-1H-pyrazolo[3,4-b]pyrazin-6-yl}-2-oxa-8-azaspiro[4.5]decan-4-amine dihydrochloride] had a concentration for half-maximal inhibition (IC50) of less than 1000 nM.
The value for `C[C@@H]1OCC2(CCN(c3cnc4c(N5CCN(C(N)=O)c6ncccc65)n[nH]c4n3)CC2)[C@@H]1N` [Compound 258, 1-{6-[(3S,4S)-4-amino-3-methyl-2-oxa-8-azaspiro[4.5]decan-8-yl]-1H-pyrazolo[3,4-b]pyrazin-3-yl}-1H,2H,3H,4H-pyrido[2,3-b]pyrazine-4-carboxamide hydrochloride] was less than 1000 nM.
The value for `C[C@@H]1OCC2(CCN(c3cnc4c(N5CCCc6nc(-c7cn[nH]c7)ccc65)n[nH]c4n3)CC2)[C@@H]1N` [Compound 259] was less than 1000 nM; that for `C[C@@H]1OCC2(CCN(c3cnc4c(N5CCCc6nc(N7CC[C@@H](O)C7)ccc65)n[nH]c4n3)CC2)[C@@H]1N` [Compound 260] was less than 1000 nM; that for `C[C@@H]1OCC2(CCN(c3cnc4c(N5CCCc6nc(N7CC[C@H](O)C7)ccc65)n[nH]c4n3)CC2)[C@@H]1N` [Compound 261, (3S)-1-(5-{6-[(3S,4S)-4-amino-3-methyl-2-oxa-8-azaspiro[4.5]decan-8-yl]-1H-pyrazolo[3,4-b]pyrazin-3-yl}-5,6,7,8-tetrahydro-1,5-naphthyridin-2-yl)pyrrolidin-3-ol] was less than 1000 nM.

These data come from patent US11591336B2 (Relay Therapeutics, Inc., priority 2017, dated 2023).
